Measured values as given in US20240060040A1, “METHODS FOR GENERATING INNER EAR HAIR CELLS” (Ear Science Institute Australia, priority 2020, published 2024).

How the values were obtained:
Format in all cases: cell-based
[1] = test system: Human iPSCs derived inner ear organoid; experiment: ECAD and PAX2 expression by confocal microscopy (ectodermal cell fate); conditions: day 20; treated aggregates, compared with Koehler method
Method: (§1) FIG. 1 illustrates methods for generating inner ear hair cells from the induced pluripotent stem cells. The inventor added a combination of agents and inhibitors at developmental stages of the inner ear organoid culture to produce the invention. In particular: • (i) ROCK inhibitor (Y-27632) is added to iPSC in suspension culture to promote the formation of three-dimensional embryoid bodies for about 3 days. • (ii) TGF-β inhibitor (SB-431542) is added at low concentration of FGF to drive the development of non-neural ectoderm in days 0 to 3. • (iii) The cultures are then transitioned to medium containing a high concentration of FGF and BMP inhibitor (LDN-193189) during days 4-7, which drives development of the early pre-otic placodal epithelium/pre-placodal ectoderm. • (iv) Next, Wnt agonist (CHIR-99021) is added to stimulate development of otic placode from days 8-11, otic pit formation from days 12-14 and otic prosensory vesicles from days 15-17. • (v) From days 18-32, hedgehog signalling inhibitor (CYC, GANT58 or GANT61) is added to promote the formation of sensory epithelium vesicles, and continued culture under these conditions results in the formation of sensory hair cells with neural innervation from day 33 onwards.
To identify the ectodermal cell fate of inner ear organoids at Day 20-40, the ECAD and PAX2 expression in organoids was observed by using confocal microscopy, comparing organoids developed using (a) Koehler's method without Hh inhibitors, (b) the method of Example 1 with cyclopamine as the SHH inhibitor (Example 2), (c) the method of Example 1 with GANT58 as the SHH inhibitor (Example 3) and (d) the method of Example 1 with GANT61 as the SHH inhibitor (Example 4). […] The ectodermal cell fate of the inner ear organoids developed better with the SHH inhibitors compared with the Koehler method. […] The formation of ectodermal cell appeared to be continuous, beginning on day 7 until approximately day 20-40.

[2] = test system: Human iPSCs derived inner ear organoid; experiment: SOX2 and Tuj1 expression by confocal microscopy; conditions: day 33-60; FIG. 18
Method: as §1
To identify the development of sensory hair cells of inner ear organoids at Day 33-60, the SOX2 and Tuj1 expression in organoids was observed by using confocal microscopy. The results are presented in FIG. 18, which compares organoids developed using (a) the method of Example 1 with cyclopamine (Example 2), and (b) the method of Example 1 with GANT58 (Example 3) and GANT61 (Example 4).

[3] = test system: Human iPSCs derived inner ear organoid; experiment: Single cell RNA sequencing and TaqMan qRT-PCR cell fate analysis; conditions: for inner ear hair cell differentiation in comparison with organoids developed using the Koehler method: RNA sequencing and TaqMan qRT-PCR, FIGS. 15 and 16; for hair cell and neuronal markers by single cell RNA sequencing: organoids at Day 60, Koehler method ~57.88%
Method: FIG. 1 illustrates methods for generating inner ear hair cells from the induced pluripotent stem cells. The inventor added a combination of agents and inhibitors at developmental stages of the inner ear organoid culture to produce the invention.
To verify the hair cell marker genes in RNAseq transcriptome analysis, quantitative TaqMan® real-time polymerase chain reaction (qRT-PCR) in inner ear organoids was performed to identify the level of hair cell gene expression. FIG. 15 illustrates sensory hair cell-specific gene expression analysis on human iPSCs derived inner ear organoid at Day 60 by single cell RNA sequencing transcriptome analysis. FIG. 16 illustrates otic epithelial-specific gene expression in inner ear organoids at Day 20 and inner ear sensory cell-specific gene expression in inner ear organoids at Day 60 by TaqMan® qRT-PCR analyses. The presence of MyoVI represents inner ear hair cell differentiation.

[4] = test system: Human iPSCs derived inner ear organoid; experiment: MyosinVIIa and Tuj1 immunostaining with confocal imaging (sensory hair cells and nerve innervation); conditions: for sensory hair cells and supporting cells in organoids / sensory hair cells and neuronal cells in organoids: day 33-60; for sensory hair cells and supporting cells in organoids: FIG. 14; for sensory hair cells and neuronal cells in organoids: FIG. 17; for inner ear hair cells and nerve innervation detected: inhibitor 1 μM from day 18, removed day 33, 10% Matrigel
Method: as §1
On day 18, the SHH inhibitor cyclopamine (CAT 239803 from Merck Millipore) was added to the cell culture to reach a final concentration of 1 μM. Matrigel® was also added to the cell culture to reach a concentration of 10%. The cells were cultured in organoid maturation medium until day 33.
On day 33, the cyclopamine was removed from the medium by washing and the droplet aggregates were remained in the cell culture containing 10% Matrigel®.
The cells were then cultured for up to 200 days in the Organoid Maturation Medium containing 10% Matrigel®. 200 μL of medium was changed daily for each well. The cells were cultured until 60-100 days, until an examination of the cell's morphology determined maturation. The viable, medium size and round 3D shape organoids with inner ear sensory cell gene expression markers were selected for analysis.
Inner ear hair cells and nerve innervation was detected after Day 35. The presence and number of inner ear hair cells was detected by immunostaining and capture with confocal imaging.
(§2) To identify the development of sensory hair cells of inner ear organoids at Day 33-60, the MyosinVIIa and Tuj1 expression in organoids was observed by using confocal microscopy. The results are presented in FIG. 14, which compares organoids developed using (a) the method of Example 1 with cyclopamine (Example 2), and (b) the method of Example 1 with GANT58 (Example 2). […] An opaque outer cell mass is indicative of complete re-organization, which was found in organoids developed using each of the SHH inhibitors. In comparison, less translucent epithelium indicative of incomplete or partial re-organization was found in organoids developed using the Koehler method. Sensory hair cell epithelium through the aggregate surface was found in organoids developed using each SHH inhibitor.
as §2, with “MyoVIIa” for “MyosinVIIa”, “17,” for “14,”, “3) and GANT61 (Example 4).” for “2).”, “inhibitors.” for “inhibitors. In comparison, less translucent epithelium indicative of incomplete or partial re-organization was found in organoids developed using the Koehler method.”

SMILES	abundance of ECAD/PAX2 positive vesicles with a luminal diameter greater than 50 μm [1]	supporting cells and neuronal cells in organoids [2]	inner ear hair cell differentiation in comparison with organoids developed using the Koehler method [3]	hair cell and neuronal markers by single cell RNA sequencing [3] [%]	sensory hair cells and supporting cells in organoids [4]	sensory hair cells and neuronal cells in organoids [4]	inner ear hair cells and nerve innervation detected [4] [days]
CC1=C2C[C@H]3[C@@H](CC=C4C[C@@H](O)CC[C@@]43C)[C@@H]2CC[C@]12O[C@@H]1C[C@H](C)CN[C@H]1[C@H]2C [cyclopamine]	higher abundance	present	greater inner ear hair cell differentiation	~74.48	present	present	> 35
CN(C)c1ccccc1CN1CCCN(Cc2ccccc2N(C)C)C1c1ccncc1 [GANT61]	higher abundance	present	greater inner ear hair cell differentiation	–	–	present	> 35
c1cc(-c2sc(-c3ccncc3)c(-c3ccncc3)c2-c2ccncc2)ccn1 [GANT58]	higher abundance	present	greater inner ear hair cell differentiation	~91.88	present	present	> 35
